# Measurements: PubChem BioAssay (NCI)
#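 Exposure lasted 48 hours, with cells grown in 96-well plates and compounds tested at five concentrations. At the TGI there is no net growth.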
# Experiments:
# Assay in all cases: growth of human tumour cells (NCI), 48 h
# SK-OV-3 ovarian = test system: SK-OV-3 ovarian
# NCI-H226 lung = test system: NCI-H226 lung
# ACHN renal = test system: ACHN renal
# KM12 colon = test system: KM12 colon
# A549 NSCLC = test system: A549 NSCLC
# BT-549 breast = test system: BT-549 breast
# NCI/ADR-RES ovarian = test system: NCI/ADR-RES ovarian
# DU-145 prostate = test system: DU-145 prostate
# NCI-H522 lung = test system: NCI-H522 lung
# HT29 colon = test system: HT29 colon
# SK-MEL-5 melanoma = test system: SK-MEL-5 melanoma
SMILES,TGI (SK-OV-3 ovarian) [µM],TGI (NCI-H226 lung) [µM],TGI (ACHN renal) [µM],TGI (KM12 colon) [µM],TGI (A549 NSCLC) [µM],TGI (BT-549 breast) [µM],TGI (NCI/ADR-RES ovarian) [µM],TGI (DU-145 prostate) [µM],TGI (NCI-H522 lung) [µM],TGI (HT29 colon) [µM],TGI (SK-MEL-5 melanoma) [µM]
COC(=O)C1=C(C(=O)OC)c2cc(OC)ccc2C(C(=S)N(C)C)S1 (stereo unspecified),> 100,> 100,> 100,> 100,> 100,> 100,> 100,> 100,–,–,–
O=C(Cc1ccccc1)N/N=C/c1ccccc1O,> 100,81.5,61,> 100,> 100,> 100,> 100,> 100,> 100,> 100,49.4
C=C(CC[C@@H](C)[C@H]1CC[C@@]2(C)C3=C(CC[C@]12C)[C@@]1(C)CC[C@H](O)[C@@H](C)C1CC3)C(C)C (stereo partly specified),2.79,5.01,2.55,2.76,2.32,3.13,3.65,–,–,1.97,2.55
O=C(O)Cc1cc(O)c(CC(=O)O)cc1O,–,> 100,> 100,> 100,> 100,> 100,> 100,> 100,> 100,> 100,> 100
O=c1[nH]nc(Cc2ccccc2)[nH]1,–,> 100,> 100,> 100,> 100,> 100,> 100,> 100,> 100,> 100,> 100
c1ccc2c(c1)nc1n2CNC1,> 100,–,> 100,> 100,> 100,> 100,> 100,> 100,–,> 100,> 100
CC(C)(C)c1ccc(-c2nc3ccc(Cl)cc3c(=O)o2)cc1,68.7,–,61.7,19.2,53,63.6,67.1,92.4,29.7,63.8,26.2
COc1cc(/C=C2\N=C(c3ccccc3)N(c3nc4c(OC)ccc(OC)c4s3)C2=O)ccc1O,> 100,–,> 100,> 100,> 100,> 100,> 100,> 100,> 100,> 100,> 100
Cc1cc(C)n(C2OC(CO)C(O)C(O)C2O)c(=S)c1C#N (stereo unspecified),–,> 100,> 100,> 100,> 100,> 100,> 100,> 100,> 100,> 100,> 100
CC(C)=CC(=O)C[C@H]1C(=O)O[C@@H]2C[C@H]3C(C)=CC(=O)[C@@H](O)[C@]3(C)[C@H]3[C@@]4(O)OC[C@]32[C@@H]1[C@@H](C)[C@H]4O,4.98,< 0.0156,0.834,12.8,–,0.205,11,0.12,–,–,0.0612
O=C1O/C(=C(/Cl)c2cccc3ccccc23)c2ccccc21,> 100,–,–,> 100,> 100,> 100,–,> 100,> 100,> 100,> 100
COc1cc2c(cc1OC)CCc1cc(OC)c(OC)cc1CC2,> 100,> 100,> 100,> 100,> 100,> 100,> 100,> 100,–,> 100,> 100
O=c1[nH]c(Nc2nc3ccccc3[nH]2)nc2c1CCC2,> 100,> 100,> 100,–,> 100,> 100,> 100,> 100,> 100,> 100,> 100
N#Cc1c(-c2ccccc2)cc(Nc2cccc(C(F)(F)F)c2)n2c1nc1ccccc12,8.73,4.74,11.1,30.5,–,14.1,7.15,19.7,1.37,4.6,1.78
Cc1nn(C(=O)Cc2ccccc2)c2c1C(c1ccc(N(C)C)cc1)SC(N)=N2 (stereo unspecified),> 100,> 100,> 100,> 100,> 100,> 100,–,> 100,> 100,> 100,> 100
Cc1ccc(N=Nc2c(C)c(C#N)c(=S)n(C3OC(CO)C(O)C(O)C3O)c2C)cc1 (stereo unspecified),> 100,–,> 100,> 100,> 100,54.4,> 100,> 100,–,> 100,35
NC(N)=N/N=C/c1c(-c2cccc([N+](=O)[O-])c2)nc2n1CCS2,–,39,44.2,68.5,41,32.2,> 100,36.4,32.2,32.7,32.5
Cc1ccc(-c2c3nc(c(-c4ccc(C)cc4)c4ccc([nH]4)c(-c4ccc(OCC5COC(C)(C)O5)cc4)c4nc(c(-c5ccc(C)cc5)c5ccc2[nH]5)C=C4)C=C3)cc1 (stereo unspecified),–,> 31.6,> 31.6,> 31.6,> 31.6,> 100,> 31.6,> 31.6,> 31.6,> 31.6,> 31.6
Cc1ccc(C)c(COCCOCn2ccc(N)nc2=O)c1,> 100,> 100,> 100,> 100,> 100,> 100,> 100,> 100,> 100,–,–
CC(C)Oc1ccc2c(c1)OCC1Cc3ccccc3OC21 (stereo unspecified),> 100,> 100,–,> 100,> 100,> 100,> 100,> 100,> 100,> 100,47.5
NC(=S)Nc1ccc(S(=O)(=O)Nc2ccc(S(N)(=O)=O)cc2)cc1,–,> 100,> 100,> 100,> 100,> 100,> 100,> 100,> 100,> 100,> 100
COC(=O)C(NC(=O)c1ccccc1)c1ccco1 (stereo unspecified),> 100,> 100,> 100,> 100,> 100,> 100,> 100,> 100,–,> 100,> 100
